Columns and labels:
Test in all cases: relative viability (nuclei count vs DMSO), 5 days (fraction); higher = more cells survive
NCI-H596 = tested on: NCI-H596
Method in brief: (§1)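 Lung cancer cell lines, seeded in 1536-well plates, were treated the following day by pin tool with a single drug or with five library-drug doses (not always all listed) in √10 steps on top of a fixed anchor-drug dose. Cells were fixed and nuclei stained in one step after 5 days, and nuclei were counted. Relative viability is the nuclei count for treated wells divided by that for vehicle wells, reported as medians of duplicate plates.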

NCI-H1666 = tested on: NCI-H1666
Method in brief: as §1

NCI-H1703 = tested on: NCI-H1703
Method in brief: as §1

NCI-H1944 = tested on: NCI-H1944
Method in brief: as §1

PC-14 = tested on: PC-14
Method in brief: as §1

NCI-H1648 = tested on: NCI-H1648
Method in brief: as §1

NCI-H661 = tested on: NCI-H661
Method in brief: as §1

A549 = tested on: A549
Method in brief: as §1

SK-LU-1 = tested on: SK-LU-1
Method in brief: as §1

| SMILES | relative viability (NCI-H596; first compound 0.2 µM) | relative viability (NCI-H596; first compound 0.6325 µM) | relative viability (NCI-H596; first compound 2 µM) | relative viability (NCI-H596; first compound 6.325 µM) | relative viability (NCI-H596; first compound 20 µM) | relative viability (NCI-H1666; first compound 0.2 µM) | relative viability (NCI-H1666; first compound 0.6325 µM) | relative viability (NCI-H1666; first compound 2 µM) | relative viability (NCI-H1666; first compound 6.325 µM) | relative viability (NCI-H1666; first compound 20 µM) | relative viability (NCI-H1944; first compound 0.2 µM) | relative viability (NCI-H1944; first compound 0.6325 µM) | relative viability (NCI-H1944; first compound 2 µM) | relative viability (NCI-H1944; first compound 6.325 µM) | relative viability (NCI-H1944; first compound 20 µM) | relative viability (PC-14; first compound 0.2 µM) | relative viability (PC-14; first compound 0.6325 µM) | relative viability (PC-14; first compound 2 µM) | relative viability (PC-14; first compound 6.325 µM) | relative viability (PC-14; first compound 20 µM) | also measured |
| --- | --- | --- | --- | --- | --- | --- | --- | --- | --- | --- | --- | --- | --- | --- | --- | --- | --- | --- | --- | --- | --- |
| Cc1csc(=NC2CCCCC2)n1/N=C/c1ccc(O)c(O)c1O [MIM1] + NC(=O)Nc1cc(-c2cccc(F)c2)sc1C(=O)N[C@H]1CCCNC1 [AZD7762] (partner 0.2 µM) | 1.17 | 1.22 | 1.03 | 1.11 | 0.819 | 0.862 | 0.789 | 0.829 | 0.7 | 0.519 | 0.511 | 0.479 | 0.475 | 0.397 | 0.243 | 0.353 | 0.244 | 0.288 | 0.311 | 0.111 | relative viability (NCI-H1703; first compound 0.2 µM): 0.124; relative viability (NCI-H1703; first compound 0.6325 µM): 0.134; relative viability (NCI-H1703; first compound 2 µM): 0.107; relative viability (NCI-H1703; first compound 6.325 µM): 0.112; relative viability (NCI-H1703; first compound 20 µM): 0.122; relative viability (NCI-H1648; first compound 0.2 µM): 0.615; relative viability (NCI-H1648; first compound 0.6325 µM): 0.718; relative viability (NCI-H1648; first compound 2 µM): 0.679; relative viability (NCI-H1648; first compound 6.325 µM): 0.677; relative viability (NCI-H1648; first compound 20 µM): 0.436 |
| Cc1csc(=NC2CCCCC2)n1/N=C/c1ccc(O)c(O)c1O [MIM1] + Nc1ncn([C@H]2C[C@H](O)[C@@H](CO)O2)c(=O)n1 [Decitabine] (partner 2 µM) | 1.09 | 1.1 | 0.831 | 0.84 | 0.841 | 0.714 | 0.741 | 0.665 | 0.734 | 0.467 | 0.399 | 0.467 | 0.403 | 0.412 | 0.355 | 0.17 | 0.197 | 0.201 | 0.137 | 0.0966 | relative viability (NCI-H661; first compound 0.2 µM): 0.496; relative viability (NCI-H661; first compound 0.6325 µM): 0.571; relative viability (NCI-H661; first compound 2 µM): 0.577; relative viability (NCI-H661; first compound 6.325 µM): 0.416; relative viability (NCI-H661; first compound 20 µM): 0.284; relative viability (A549; first compound 0.2 µM): 0.217; relative viability (A549; first compound 0.6325 µM): 0.208; relative viability (A549; first compound 2 µM): 0.353; relative viability (A549; first compound 6.325 µM): 0.272; relative viability (A549; first compound 20 µM): 0.0686; relative viability (SK-LU-1; first compound 0.2 µM): 0.686; relative viability (SK-LU-1; first compound 0.6325 µM): 0.727; relative viability (SK-LU-1; first compound 2 µM): 0.708; relative viability (SK-LU-1; first compound 6.325 µM): 0.65; relative viability (SK-LU-1; first compound 20 µM): 0.351; relative viability (NCI-H1648; first compound 0.2 µM): 0.523; relative viability (NCI-H1648; first compound 0.6325 µM): 0.376; relative viability (NCI-H1648; first compound 2 µM): 0.486; relative viability (NCI-H1648; first compound 6.325 µM): 0.382; relative viability (NCI-H1648; first compound 20 µM): 0.35 |
